Test results published in patent US11458126B2, “DHODH inhibitor for use in treating hematologic cancers” (PTC THERAPEUTICS, INC., priority 2017, dated 2022).

Key:
[1] = system: HT1080 cells; assay: S phase cell cycle delay; type: cell-based, human; settings: prevented by uridine or cytidine (FIG. 1e)
[2] = system: de novo pyrimidine nucleotide synthesis in HT1080 cells; assay: 15N-glutamine tracing study: pyrimidine nucleotide synthesis metabolites by LC-MS/MS; type: cell-based, human; settings: 100 nM, 8 hours, vs 0.5% DMSO, LC/MS (FIG. 1a)
[3] = system: HL-60 cells (human promyelocytic leukemia cells); assay: In vitro combination assay with HL-60 cells (Cell Titer Glo); type: cell-based; settings: Homo sapiens, single agent, 111 nM, 72 hours, read-out: proliferative inhibition
Method: In vitro Combination Assay with HL-60 cells. […] HL-60 cells are reported to express the wild-type IDH2 gene/protein. […] Concentrations of enasidenib were tested at: 0, 0.1, 0.3, 1.3, 6.4, 32, 160, 800, 4,000 and 20,000 nM. The combinations were evaluated in a full checkerboard titration. The extent of proliferation at 72 hours was determined by addition of Cell Titer Glo, and the percent inhibition calculated as referenced to vehicle/DMSO treated HL-60 cells.

[4] = system: VEGFA protein production in HT1080 cells; assay: VEGFA protein production as surrogate for inhibition of DHODH function; type: cell-based, human; settings: blocked by added uridine, not adenosine, cytidine, guanosine (FIG. 1d)
Method: (§1) Determination of ELISA EC50 and Cytotoxicity CC50: All ELISAs were performed using commercially available ELISA kits (R&D Systems) according to the manufacturer's instructions. The screen of 240 cell lines were performed in Crown Bioscience (Shanghai, China). […] Data generated from ELISA or cytotoxicity studies were plotted with Prism software, with the Y-axis typically representing the % inhibition and the X-axis representing log compound concentration. A sigmoid dose response with a variable slope regression curve was generated for each compound. Maximal inhibition was set at 100% and minimal at 0%. EC50 and CC50 values were automatically calculated after curve fitting using the Prism software.

[5] = target: DHODH (Homo sapiens, UniProt Q02127); assay: Pull-down with Cpd 1-linked Sepharose beads, Western blot; type: binding; design: 1 mL of cell lysate solution (2 mg/mL protein) was added to each reaction tube; endogenous in cells
DHODH, sequence (Q02127 whole entry): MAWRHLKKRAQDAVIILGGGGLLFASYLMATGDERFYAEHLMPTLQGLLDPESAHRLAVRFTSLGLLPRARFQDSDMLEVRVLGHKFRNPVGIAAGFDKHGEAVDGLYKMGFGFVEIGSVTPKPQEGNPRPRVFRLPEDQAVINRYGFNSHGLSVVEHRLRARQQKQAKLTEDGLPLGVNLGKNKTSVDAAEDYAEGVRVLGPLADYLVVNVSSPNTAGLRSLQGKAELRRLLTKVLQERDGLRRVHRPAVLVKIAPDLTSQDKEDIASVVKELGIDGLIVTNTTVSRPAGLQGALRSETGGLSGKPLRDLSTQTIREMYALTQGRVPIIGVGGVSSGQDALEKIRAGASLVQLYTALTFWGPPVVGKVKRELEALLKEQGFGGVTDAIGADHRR
Excerpt: Western Blot Analysis. […] Subsequently, the conditioned medium was harvested by mixing with equal volume of 2×SDS-PAGE sample buffer (Bio-Rad). […] Proteins in the samples were resolved on a Tris-glycine Criterion gel (Bio-Rad) and transferred onto a 0.45 μm nitrocellulose membrane. […] Antibody (C1) specific for VEGFA was purchased from Santa Cruz Biotechnologies, CA (1:200 dilution); Antibody specific for human β-actin was purchased from Abcam (1:10000 dilution); Antibody specific for V5-tag was purchased from Invitrogen (1:5000 dilution). […] Immunodetection was done using the corresponding secondary antibodies conjugated with infrared dyes or horseradish peroxide. The expression levels of proteins were detected with Odyssey (LI-COR) or using enhanced chemiluminescence (Pierce, Rockford, Ill.).
The wet Sepharose 6B was diluted with pH 11 phosphate/NaOH buffer (5 mL). […] The reaction mixture was stirred further 24 hours at 40° C.
Cells in log phase growth were washed with cold PBS once and then collected by trypsin digestion. […] Proteins in the eluted samples were identified via LC-MS/MS or western blot analysis.

[6] = system: prohibitin; assay: Pull-down with Cpd 1-linked Sepharose beads, Western blot (control protein); type: binding, human; settings: Western blot (FIG. 2a)
Method: Western Blot Analysis. Cells were treated with test compounds for 24 to 48 hours as indicated in the Results section. Subsequently, the conditioned medium was harvested by mixing with equal volume of 2×SDS-PAGE sample buffer (Bio-Rad). Whole-cell extracts were obtained by lysing cells either directly in 1×SDS-PAGE sample buffer (Bio-Rad) or in M-PER lysis buffer containing 150 mmol/L NaCl, 2 mmol/L EDTA and 1× Halt protease inhibitors (Pierce, Rockford, Ill.). Proteins in the samples were resolved on a Tris-glycine Criterion gel (Bio-Rad) and transferred onto a 0.45 μm nitrocellulose membrane. The membranes were then immunoblotted with specific antibodies indicated in the Results section. Antibody (C1) specific for VEGFA was purchased from Santa Cruz Biotechnologies, CA (1:200 dilution); Antibody specific for human β-actin was purchased from Abcam (1:10000 dilution); Antibody specific for V5-tag was purchased from Invitrogen (1:5000 dilution). Antibody specific for DHODH was purchased from Proteintech (Cat #: 14877-1-AP, 1:500 dilution); and antibody specific for human prohibitin was purchased from Thermo Scientific (Cat #: PA5-12274 and PA5-14133, 1:1000 dilution). […] The expression levels of proteins were detected with Odyssey (LI-COR) or using enhanced chemiluminescence (Pierce, Rockford, Ill.). […]

[7] = system: panel of 240 tumor cell lines; assay: Tumor cell line panel proliferation (CellTiter-Glo); type: cell-based; settings: IC50≤2 μM (FIG. 4a)
Method: as §1

For COc1ccc([C@H]2c3[nH]c4ccc(Cl)cc4c3CCN2C(=O)Oc2ccc(Cl)cc2)cc1 [Cpd 1, 4-chlorophenyl (S)-6-chloro-1-(4-methoxyphenyl)-1,3,4,9-tetrahydro-2H-pyrido[3,4-b]indole-2-carboxylate], the “S phase cell cycle” value [1] was “induced S phase cell cycle delay”, the “total levels of deoxy-pyrimidine nucleotides (dCTP and dTTP) but not deoxy-purine nucleotides dATP and dGTP” value [2] was “selectively decreased” and the inhibition at 0.111 µM [3] was ~20%. For the same compound, the VEGFA protein production [4] was “inhibition of VEGFA protein production”, the “competitive elution of DHODH from Cpd 1 beads by free compound” value ([5]; Competing Off (FIG. 2b)) was “selectively eluted” and the “binding of DHODH to Cpd 1-linked beads after preincubation with free compound” value ([5]; Competing On, Western blot (FIG. 2a)) was “inhibited”. The “binding of prohibitin to Cpd 1-linked beads after preincubation with free compound” value [6] was “not blocked”, the hematopoietic lines sensitive ([7]; 32/56 lines) was 57% and the “solid tumor lines sensitive” value ([7]; 34/184 lines) was 18%.
